The text below walks through data of patent US20250197387A1, “BCL-XL DEGRADERS AND USES THEREOF” (Kymera Therapeutics, Inc., priority 2021, published 2025).

Read-outs that look alike come from different tables or passages of the source.

Format in all cases: cell-based
Assay [1] concerns the target T1, BCL-XL (Homo sapiens, UniProt Q07817).
T1 construct: endogenous in cells; host or cells: MOLT-4
In words: BCL-XL degradation assay, western blot in MOLT-4 cells, 16 h. To be noted: western blot, MOLT-4 cells, 16 h; for Dmax: read-out: Bcl-xL WB in MOLT-4 degradation 16 h: Average Dmax %; for DC50: read-out: Bcl-xL WB in MOLT-4 degradation 16 h: Mean external-Abs DC50. A digest of the protocol:
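Infrared-imaged western blots quantified BCL-xL (normalised against beta-actin/GAPDH) after 16 hr, 37° C exposure of MOLT-4 cells to 0.02-10 μM compound; results given as DC50 and Dmax % bins.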
A general note: A western blot detects proteins with antibodies after separation by electrophoresis.

Another assay has as its system MOLT-4 cells. Kind of assay: CTG (CellTiter-Glo) cell viability assay, MOLT-4. To be noted: 3 day incubation, read-out: CTG Cell Viability Assay - MOLT-4 3 day: Average external-IC50. The method, boiled down: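 10,000 cells/well; 9 doses, 1:3 from 10 μM top; 0.2% DMSO; 3 d, 37 °C, 5% CO2; CTG luminescence; IC50 via 3-parameter logistic fit. Letter bins differ: Caki-2 C/D cut at 10.0 μM, MOLT-4 at 3.0 μM.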

The target of assay [2] is T1, BCL-XL. In words: Bcl-xL ELISA degradation in MOLT-4 cells, 6 h. The note with it: for DC50: read-out: Bcl-xL ELISA in MOLT-4 degradation 6 h: Mean external-Abs DC50. As for the experimental part: The letter codes for BCL-XL DC50 include: A (<0.01 μM); B (0.01-0.1 μM); C (>[…]); D (>0.5-1.0 μM); and E (>1.0 μM). The letter codes for Dmax % include A (>75%); B (50 to 75%); C (<50%).
(In general: In an ELISA, binding on a coated surface is turned into a signal by an enzyme label.)

T1 sequence (Q07817 whole entry): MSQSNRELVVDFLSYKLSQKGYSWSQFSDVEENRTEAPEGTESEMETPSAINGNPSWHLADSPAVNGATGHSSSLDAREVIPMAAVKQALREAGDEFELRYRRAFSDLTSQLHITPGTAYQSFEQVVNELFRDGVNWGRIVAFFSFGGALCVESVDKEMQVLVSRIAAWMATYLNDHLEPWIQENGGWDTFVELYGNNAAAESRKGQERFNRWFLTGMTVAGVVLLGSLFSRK

For `Cc1ncsc1-c1ccc([C@H](C)NC(=O)[C@@H]2C[C@@H](O)CN2C(=O)[C@@H](NC(=O)N2CC(N3CCC(S(=O)(=O)NC(=O)c4nc(N5CCc6cccc(C(=O)Nc7nc8ccccc8s7)c6C5)ccc4-c4cnn(CC5CCCCC5)c4C)CC3)C2)C(C)(C)C)cc1` [I-212], on BCL-XL [1], the Dmax was greater than 75% and the 50% degradation concentration (DC50) is less than 10 nM. The 50% inhibitory concentration (IC50) in the assay on MOLT-4 cells (Homo sapiens, MOLT-4, 72 h) lay in the range of 100 to 1000 nM. In addition, on BCL-XL [2], the Dmax lay within 50 to 75% and the 50% degradation concentration (DC50) is 100 to 500 nM.

As to `Cc1ncsc1-c1ccc([C@H](C)NC(=O)[C@@H]2C[C@@H](O)CN2C(=O)[C@@H](NC(=O)CCCCCCC(=O)N2CCN(CC3(C)CCC(c4ccc(Cl)cc4)=C(CN4CCN(c5ccc(C(=O)NS(=O)(=O)c6ccc(N[C@H](CCN7CCOCC7)CSc7ccccc7)c(S(=O)(=O)C(F)(F)F)c6)cc5)CC4)C3)CC2)C(C)(C)C)cc1` (stereo partly drawn) [I-399], at BCL-XL [1], the “Bcl-xL WB in MOLT-4 degradation 16 h: Average Dmax %” value is “A (A (>75%))” and the DC50 is less than 10 nM. Further, the IC50 in the assay with MOLT-4 cells was in the range of 100 to 1000 nM. Further, at BCL-XL [2], the “Bcl-xL ELISA in MOLT-4 degradation 6 h: Average Dmax %” value is given as “C (C (<50%))” and the DC50 is 100 to 500 nM.

In the case of `C#Cc1ccc([C@H](CO)NC(=O)[C@@H]2C[C@@H](O)CN2C(=O)[C@@H](NC(=O)CCc2ccc(S(=O)(=O)NC(=O)c3nc(N4CCc5cccc(C(=O)Nc6nc7ccccc7s6)c5C4)ccc3-c3cnn(CC4CCCCC4)c3C)cc2)C(C)(C)C)cc1` [I-194], on BCL-XL [1], the Dmax was greater than 75% and the half-maximal degradation concentration (DC50) is less than 10 nM. Further, the IC50 in the assay on MOLT-4 cells (Homo sapiens, MOLT-4, 72 h) is less than 100 nM. For the same compound, on BCL-XL [2], the Dmax is greater than 75% and the half-maximal degradation concentration (DC50) is 10 to 100 nM.

For `Cc1ncsc1-c1ccc(CNC(=O)[C@@H]2C[C@@H](O)CN2C(=O)[C@@H](NC(=O)C2(F)CC2)C(C)(C)C)c(OCCC2CN(CC[C@H](CSc3ccccc3)Nc3ccc(S(=O)(=O)NC(=O)c4ccc(N5CCN(CC6=C(c7ccc(Cl)cc7)CCC(C)(C)C6)CC5)cc4)cc3S(=O)(=O)C(F)(F)F)C2)c1` [I-208], at BCL-XL [1], the Dmax was 50 to 75% and the half-maximal degradation concentration (DC50) lay within 500 to 1000 nM. The 50% inhibitory concentration (IC50) with MOLT-4 cells (Homo sapiens, MOLT-4, 72 h) was 100 to 1000 nM. Further, at BCL-XL [2], the Dmax is less than 50% and the DC50 is greater than 1000 nM.

As for `Cc1ncsc1-c1ccc([C@H](C)NC(=O)[C@@H]2C[C@@H](O)CN2C(=O)[C@@H](NC(=O)COCCN2CCC(S(=O)(=O)NC(=O)c3nc(N4CCc5cccc(C(=O)Nc6nc7ccccc7s6)c5C4)ccc3-c3cnn(CC4CCCCC4)c3C)CC2)C(C)(C)C)cc1` [I-206], on BCL-XL [1], the greatest degradation seen (Dmax) was greater than 75% and the DC50 was less than 10 nM. Besides, the half-maximal inhibitory concentration (IC50) with MOLT-4 cells (Homo sapiens, MOLT-4, 72 h) was in the range of 100 to 1000 nM. Moreover, at BCL-XL [2], the Dmax lay in the range of 50 to 75% and the DC50 lay within 10 to 100 nM.

In the case of `Cc1ncsc1-c1ccc([C@H](C)NC(=O)[C@@H]2C[C@@H](O)CN2C(=O)[C@@H](NC(=O)CCC2CCC(S(=O)(=O)NC(=O)c3nc(N4CCc5cccc(C(=O)Nc6nc7ccccc7s6)c5C4)ccc3-c3cnn(CC4CCCCC4)c3C)CC2)C(C)(C)C)cc1` (stereo partly drawn) [I-209], the figures for the Dmax on BCL-XL [1] and at BCL-XL [2] were greater than 75% and 50 to 75%, respectively. For the same compound, the DC50 at BCL-XL [1] fell in the range of 10 to 100 nM; on BCL-XL [2] it was 100 to 500 nM. Besides, in the assay on MOLT-4 cells (Homo sapiens, MOLT-4, 72 h), the half-maximal inhibitory concentration (IC50) is less than 100 nM.

On to `Cc1ncsc1-c1ccc([C@H](C)NC(=O)[C@@H]2C[C@@H](O)CN2C(=O)[C@@H](NC(=O)CCCCCCC(=O)N2CCN(C[C@@]3(C)CCC(c4ccc(Cl)cc4)=C(CN4CCN(c5ccc(C(=O)NS(=O)(=O)c6ccc(N[C@H](CCN7CCOCC7)CSc7ccccc7)c(S(=O)(=O)C(F)(F)F)c6)cc5)CC4)C3)CC2)C(C)(C)C)cc1` [I-396], for which the Dmax at BCL-XL [1] was greater than 75%; at BCL-XL [2], 50 to 75%. Also, the results for the half-maximal degradation concentration (DC50) on BCL-XL [1] and at BCL-XL [2] were less than 10 nM and 500 to 1000 nM, respectively. Further, the IC50 in the assay with MOLT-4 cells (Homo sapiens, MOLT-4, 72 h) was 100 to 1000 nM.

For `Cc1ncsc1-c1ccc(CNC(=O)[C@@H]2C[C@@H](O)CN2C(=O)[C@H](c2cc(OCCCCCCCCC(=O)N(C)CC#Cc3ccc(OCCCc4ccc(N5CCc6cccc(C(=O)Nc7nc8ccccc8s7)c6C5)nc4C(=O)O)c(F)c3)no2)C(C)C)cc1` [I-172], on BCL-XL [1], the Dmax is greater than 75% and the DC50 was less than 10 nM. Further, the 50% inhibitory concentration (IC50) with MOLT-4 cells (Homo sapiens, MOLT-4, 72 h) was 100 to 1000 nM. At BCL-XL [2], the Dmax lay in the range of 50 to 75% and the 50% degradation concentration (DC50) was in the range of 10 to 100 nM.

Take `Cc1ncsc1-c1ccc([C@H](C)NC(=O)[C@@H]2C[C@@H](O)CN2C(=O)[C@@H](NC(=O)CCCCCCCCC(=O)N2CCN(CC#Cc3ccc(OCCCc4sc(N5CCc6cccc(C(=O)Nc7nc8ccccc8s7)c6C5)nc4C(=O)O)c(F)c3)CC2)C(C)(C)C)cc1` [I-204]: at BCL-XL [1], the maximal degradation (Dmax) was greater than 75% and the DC50 is less than 10 nM. Besides, the half-inhibitory concentration (IC50) in the assay on MOLT-4 cells (Homo sapiens, MOLT-4, 72 h) was in the range of 100 to 1000 nM. Moreover, on BCL-XL [2], the Dmax was greater than 75% and the half-maximal degradation concentration (DC50) was 10 to 100 nM.

`Cc1ncsc1-c1ccc(CNC(=O)[C@@H]2C[C@@H](O)CN2C(=O)[C@@H](NC(=O)C2(F)CC2)C(C)(C)C)c(OCCN2CCC(NC(=O)c3nc(N4CCc5cccc(C(=O)Nc6nc7ccccc7s6)c5C4)ccc3-c3cnn(CC4CCCCC4)c3C)CC2)c1` [I-191]: at BCL-XL [1], the Dmax is 50 to 75% and the DC50 lay in the range of 100 to 500 nM. In addition, the concentration for half-maximal inhibition (IC50) in the assay on MOLT-4 cells (Homo sapiens, MOLT-4, 72 h) fell in the range of 100 to 1000 nM.

The Dmax is the largest share of the target that was removed. Broadly, the DC50 is the midpoint of the concentration-degradation curve. One may read the IC50 as the concentration that inhibits the measured activity by half.
